Experimental findings from patent US20240360186A1, “Treatment Of Integrin-Related Disorders With Stapled Peptides” (Institute For Cancer Research d/b/a The Research Institute …, priority 2021, published 2024) are described below.

Bridge positions count the residues as written; N and C are the ends. Square brackets hold non-standard residues; d marks the D form. Ends that are not written are not given here. Peptide text beside a SMILES is read from it. S5 = C=CCCC[C@](C)(N)C(=O)O

The subject of data set [1] is β3-THD (integrin β3-talin head domain fusion protein). In words: GST pull-down, β3-THD chimera. The data set is classed as binding. The conditions noted are these: GST-fused peptide on glutathione beads, His-tagged talin protein, Western blot. The source says:
The interaction of the TBS segment of RIAM with the talin head domain is compatible with the integrin-β:talin interaction (see, Yang et al., Nat. Commun., 2014, 5, 5880). To test this proposed synergistic interaction, a chimeric protein was constructed by fusing a integrin 03 segment to talin head domain (β3-THD) and assessed its interaction with TBS. […] The T14E mutation in TBS is expected to generate anew salt-bridge interaction with talin through the Arg358 residue, which is essential for the interaction of talin and integrin-β3 (FIG. 2, Panel D; see Barsukov et al., J. Biol. Chem., 2003, 278, 31202-09).
Plasmid construction, protein purification, and GST pull-down: Talin R7R8, talin head domain, β3-THD chimera, and GST-TBS were expressed and purified as described previously described (see, Zhang et al., Proc. Natl. Acad. Sci. U.S.A., 2020, 117, 32402-12; and Chang et al., 2014). Point mutations were constructed using a site-directed mutagenesis method. […] The proteins were resolved by SDS-PAGE and detected by Coomassie staining or Western blotting. […] The blots were visualized with the SuperSignal West Pico Chemiluminescent Substrate (Thermo Scientific) and detected using the FluorChem E imager (ProteinSimple).

The test system of the next data set is CHO-A5 cells. In words: Cell permeability assay (flow cytometry uptake of fluorophore-labelled peptide). The data set is classed as in vitro ADME. The following applies: CHO-A5 cells, lower doses, flow cytometry permeability index, fluorophore-labelled peptides. The protocol:
Assessing membrane permeability: CHO-A5 cells were treated with FAM-labelled WT-TBS (1, 10, and 50 μM), or with FITC-labelled stapled-TBS (1, 10, and 50 μM), and incubated for 30 minutes at 37° C. The cells were washed twice with phosphate-buffered saline (PBS), harvested in trypsin-EDTA, and centrifuged at 2,000 rpm for 5 minutes. The cells were resuspended in PBS and quantified with an LSR flow cytometer using 30,000 cells per measurement.
A common challenge for peptidomimetic drugs that target intracellular proteins is the poor cell membrane permeability. To assess the effect of the C8 staple on cell permeability, FITC-labeled S-TBS were incubated with CHO cells at various concentration and examined S-TBS uptake by flow cytometry. […] The assay was then performed using lower doses of peptides and quantified the signals for statistical analyses. […] In contrast, TBS requires a concentration of at least 5 μM for cell uptake (FIG. 3, Panel B).
Cell permeability assay: CHO-A5 cells were plated in 6-well dishes, and then treated with fluorophore labeled TBS or S-TBS peptides at indicated concentrations for 30 minutes at 37° C. The cells were then washed twice with phosphate-buffered saline (PBS), detached by adding a mixture of trypsin and […] (“trypsin-EDTA”) and harvested by spinning at 2,000 rpm for 5 minutes. The cells were resuspended in PBS and quantified with an LSR flow cytometer (525/50 filter, 488 nm laser) using 30,000 cells per measurement.

Data set [2] relates to integrin αIIbβ3. In words: Integrin activation assay, wild-type talin head domain. It counts as cell-based. The conditions noted are these: CHO-A5 cells expressing GFP-tagged wild-type talin head domain; TBS 100 μM, S-TBS 10 and 100 μM, 30 minutes; PAC1 flow cytometry. The protocol: (§1) Assessing integrin activation: CHO-A5 cells were transfected with GFP-tagged talin-head domain (residues 1-430, WT or W359A) and incubated for 24 hours at 37° C. The cells were subsequently treated with WT-TBS at 100 μM or Staple-TBS (at 10 and 100 μM) for 30 minutes at 37° C. and washed twice with PBS, harvested in trypsin-EDTA, and centrifuged at 2,000 rpm for 5 minutes. The cells were incubated in Tyrode's buffer (136.9 mM NaCl, 10 mM HEPES, 5.5 mM glucose, 11.9 mM NaHCO3, 2.7 mM KCl, 0.5 mM CaCl2), 1.5 mM MgCl2, and 0.4 mM NaH2PO4, pH 7.4) containing PAC1 antibody for 1 hour at 30° C. and then stained with Alexa 647 (goat anti-mouse IgM) for 30 minutes at RT. The cells were quantified with an LSR flow cytometer using 30,000 cells per measurement.
(§2) The effect of S-TBS on talin-induced activation of integrin αIIbβ3 was examined. CHO-A5 cells that stably express integrin αIIbβ3 were transfected with a green fluorescent protein-tagged talin head domain, treated with S-TBS or TBS, and then subjected flow cytometry analysis for integrin αIIbβ3 activity. […]
(§3) Integrin activation assays: CHO-A5 cells were transfected with talin-head domain, wild-type or W359A, and incubated for 24 hours at 37° C. […] The cells were quantified with a Beckton, Dickenson & Co. Biosciences LSR flow cytometer (660/20 filter, 640 nm laser) using 30,000 cells per measurement.
A general note: A flow cytometer gives signals particle by particle.

Data set [3] deals with integrin αIIbβ3. In words: Integrin activation assay, inactive talin head mutant THD-W359A. The data set is classed as cell-based. The following applies: CHO-A5 cells transfected with THD-W359A; TBS 100 μM, S-TBS 10 and 100 μM; PAC1 flow cytometry. The protocol: as §1, §2, §3
The subject of another data set is HEK-293 cells. In words: Cell toxicity assay, HEK-293. The data set is classed as cell-based. The following applies: 40 μM, treated one hour then washed away, viability at 24 and 48 hours. The protocol:
(§4) The cell toxicity of the peptides was then examined. HEK, MCF-7, and HeLa were used. Cells were treated with S-TBS 40 μm for one hour. The S-TBS was then washed away and the viability measured at 24 and 48 hours. No impact on HEK, MCF-7, and HeLa cell growth was observed.

The test system of the next data set is MCF-7 cells. In words: Cell toxicity assay, MCF-7. The data set is classed as cell-based. The following applies: 40 μM, treated one hour then washed away, viability at 24 and 48 hours. The method, then: as §4
In a further data set the test system is HeLa cells. In words: Cell toxicity assay, HeLa. It counts as cell-based. The conditions noted are these: 40 μM, treated one hour then washed away, viability at 24 and 48 hours. The method, then:
as §4

Data set [4] has as its target T1, Talin head domain (residues 1-430) (UniProt P26039 1-430).
T1 construct: range 1-430; also called THD
In words: fluorescence polarization, as the legend of FIG. 9 Panel B prints it (Table 2 prints 116). The protocol: (§5) To assess the binding affinities of S-TBS with talin, the Kd of TBS and S-TBS peptides with talin rod R7R8 and talin head (residues 1-430) were measured using fluorophore-labeled peptides and recombinantly expressed, purified talin proteins by FP assays. […] This gain of affinity may be attributed to the C8 staple as it stabilizes the helical structure of TBS, and the enhanced hydrophobic interaction between S-TBS and talin rod. The enhanced binding of S-TBS to talin further validates the design strategy of using stapled peptides as a potent competitive inhibitor.
(§6) Fluorescent Polarization: Mixtures were prepared of purified talin proteins at a series concentration (R7R8: 0.2 μM to 20 μM; THD/b3-THD: 5 μM to 100 μM), or buffer only, with 20 nM FITC-labeled S-TBS (New England Peptide) in a buffer containing 20 mM HEPES, pH 7.5, 100 mM NaCl, and 2 mM DTT. After five minutes of incubation, 20 μl of the reaction mix was added to individual wells of a 384-well assay plate (Corning) and then measured fluorescence polarization at room temperature using a plate reader. A […] as emission polarization filters. FP signals were normalized against buffer-only background and then fit to a single-site (saturating) binding model using SigmaPlot (Systat Software).
On the technique in general: Fluorescence polarisation rises when a labelled molecule tumbles more slowly, as on binding a larger partner.

Data set [5] has as its target T2, Talin rod R7R8 domains (UniProt P26039 1357-1653, limits assumed).
T2 construct: domain: R7R8; also called talin R7R8; talin rod double-domain R7R8
In words: fluorescence polarization; fluorophore-labelled peptide, purified talin protein titrated. The method, then: as §5, §6

Data set [6] addresses T1, Talin head domain (residues 1-430). Described as above. The protocol: as §5, §6
In data set [7] the target is T2, Talin rod R7R8 domains. Nature of the data set: fluorescence polarization; Kd of S-TBS against Kd of TBS. The protocol:
as §5, §6

In data set [8] the target is T1, Talin head domain (residues 1-430). Described as above. The protocol: as §5, §6
Data set [9] deals with T2, Talin rod R7R8 domains. Nature of the data set: fluorescence polarization; fluorophore-labelled peptide titrated with talin R7R8. The protocol: as §5, §6
The target in data set [10] is T1, Talin head domain (residues 1-430). Nature of the data set: fluorescence polarization; fluorophore-labelled peptide titrated with talin head (residues 1-430). The method, then: as §5, §6

T1 sequence (P26039 1-430 limits assumed): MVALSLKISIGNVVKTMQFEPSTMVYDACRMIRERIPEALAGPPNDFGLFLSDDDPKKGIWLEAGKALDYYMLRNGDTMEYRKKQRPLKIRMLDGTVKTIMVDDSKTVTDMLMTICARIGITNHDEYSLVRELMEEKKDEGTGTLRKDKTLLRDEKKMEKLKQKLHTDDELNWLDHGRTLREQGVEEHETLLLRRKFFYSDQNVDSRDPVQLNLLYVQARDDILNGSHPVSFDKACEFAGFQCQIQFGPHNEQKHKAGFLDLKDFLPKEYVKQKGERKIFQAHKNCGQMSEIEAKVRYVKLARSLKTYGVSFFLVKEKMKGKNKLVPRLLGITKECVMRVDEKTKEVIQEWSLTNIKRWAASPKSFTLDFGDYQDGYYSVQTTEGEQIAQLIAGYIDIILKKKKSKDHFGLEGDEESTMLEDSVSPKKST
T2 sequence (P26039 1357-1653 limits assumed): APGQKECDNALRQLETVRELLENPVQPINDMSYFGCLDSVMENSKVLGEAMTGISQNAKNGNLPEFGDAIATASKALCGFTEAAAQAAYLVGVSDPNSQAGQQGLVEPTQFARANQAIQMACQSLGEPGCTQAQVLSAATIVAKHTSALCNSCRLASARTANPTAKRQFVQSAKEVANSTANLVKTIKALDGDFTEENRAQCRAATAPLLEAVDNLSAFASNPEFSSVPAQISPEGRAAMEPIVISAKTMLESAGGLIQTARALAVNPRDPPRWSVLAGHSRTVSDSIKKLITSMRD

Regarding `CC[C@H](C)[C@H](NC(=O)[C@H](CC(=O)O)NC(=O)[C@H](CCC(=O)O)NC(=O)[C@@H](N)CC(N)=O)C(=O)N[C@@H](CC(=O)O)C(=O)N[C@@H](CCC(N)=O)C(=O)N[C@@H](CCSC)C(=O)N[C@@H](Cc1ccccc1)C(=O)N[C@@H](CO)C(=O)N[C@H](C(=O)N[C@@H](CC(C)C)C(=O)N[C@@H](CC(C)C)C(=O)NCC(=O)N[C@@H](CCC(=O)O)C(=O)N[C@@H](CCSC)C(=O)N[C@@H](CC(=O)O)C(=O)N[C@@H](CC(C)C)C(=O)N[C@@H](CC(C)C)C(=O)N[C@H](C(=O)N[C@@H](CCC(N)=O)C(=O)N[C@@H](CO)C(=O)O)[C@@H](C)O)[C@@H](C)O` [TBS, reference compound] (H-NEDIDQMFSTLLGEMDLLTQS-OH; N-terminus and C-terminus assumed), the “interaction with β3-THD (pull-down)” value in data set [1] is listed as “much more strongly than with THD alone”. Further, the “concentration giving significant cell uptake” value with CHO-A5 cells was “at least 5 μM”. For the same molecule, in the data set on integrin αIIbβ3 [2], the “integrin αIIbβ3 activity (talin-induced activation)” value is “no inhibitory effect”. For the same molecule, the “integrin αIIbβ3 activity with inactive talin head THD-W359A” value in the data set with integrin αIIbβ3 [3] is reported as “No inhibitory effect”. Also, the “cell toxicity (viability / cell growth), HEK” value in the data set on HEK-293 cells was “minimal cell toxicity”. Further, in the data set with MCF-7 cells, the “cell toxicity (viability / cell growth), MCF-7” value was “minimal cell toxicity”. Also, the “cell toxicity (viability / cell growth), HeLa” value in the data set with HeLa cells was “minimal cell toxicity”.

What is called Kd is the equilibrium constant for the complex coming apart. Higher therefore signals a looser complex. Take NEDIDQMFSTLLGEMDLLTQS (also: fluorescein (6-FAM) label in some assays, also called WT-TBS; unstapled TBS) [TBS peptide (unstapled talin-binding site peptide of RIAM)]: the Kd was 106 µM in data set [4], 17.7 µM with Talin rod R7R8 domains [5] and 116 µM in data set [6].

B1: S-TBS, stapled talin-binding site peptide (Stp(15,19))H2N-NEDIDQMFSTLLGE(S5)DLL(S5)QS-OH (peptide)
peptide: H-NEDIDQMFSTLLGE[S5]DLL[S5]QS-OH
modifications: staple 15-19; also: FITC label in some assays, site not given here
notes: X stands for the non-natural stapling residue (S5); also called stapled TBS; stapled-TBS
Broadly, the EC50 (read off the curve) is the midpoint of the concentration-response curve. Lower therefore signals an effect from little substance. With B1, the “fold stronger binding than TBS” value is 6 fold with Talin rod R7R8 domains [7] and 3.5 fold in data set [8]. For the same molecule, the “EC50 (read off the curve)” value with Talin rod R7R8 domains [9] is ~2 µM; in data set [10], 10 to 20 µM.
